Values after ≈ are worked out from the molar mass of the structure shown.

The test system of data set [1] is CN[C@@H]1[C@H](O)[C@H](NC)[C@H]2O[C@@]3(O)C(=O)C[C@@H](C)O[C@H]3O[C@@H]2[C@H]1O. Briefly: purified protein. The format is biochemical, Providencia rettgeri. Conditions: 2 mM ATP, 10 mM MgCl2, 50 mM HEPES pH 7.5, 500 μM DTT, 37 °C.
The subject of data set [2] is T1, Escherichia coli ACTT25922.
T1 construct: ATCC 25922
Briefly: microbe, parasite or virus in culture. On the set-up: CLSI agar dilution MIC, bacterial growth inhibition. An excerpt:
(§1) In accordance with the standards of the Clinical and Laboratory Standards Institute (CLSI),^1 the agar dilution method was used to determine the minimum inhibitory concentration (MIC). E. coli ATCC 25922 served as a quality control for antibiotic susceptibility testing. The tested antimicrobial agents included spectinomycin, tobramycin, streptomycin, netilmicin, paromomycin and amikacin (Table 2).

The subject of data set [3] is T2, Enterococcus faecalis ATCC29212.
T2 construct: ATCC 29212
Nature of the data set: microbe, parasite or virus in culture. The arrangement: CLSI agar dilution MIC, bacterial growth inhibition.
Source text: as §1

In the case of ANT(9)-Id (Providencia rettgeri), in data set [1], the Km was determined as 8.94 ± 2.50 µM, the kcat is 232 ± 59.8 s⁻¹ and the kcat/Km is 2.62e+07 ± 2.95e+06 M⁻¹ s⁻¹.

Turning to `C[C@H]1c2cccc(O)c2C(=O)C2=C(O)[C@]3(O)C(=O)C(C(N)=O)=C(O)[C@@H](N(C)C)[C@@H]3[C@@H](O)[C@@H]21` [doxycycline], the MIC in data set [2] was determined as 1 µg/mL (≈ 2.25 µM); in data set [3], 4 µg/mL (≈ 9 µM).

Take `C=C[C@]1(C)C[C@@H](OC(=O)CSCCN(CC)CC)[C@]2(C)[C@H](C)CC[C@]3(CCC(=O)[C@H]32)[C@@H](C)[C@@H]1O` [tiamulin]: the MIC in data set [2] was > 512 µg/mL; in data set [3] it was 64 µg/mL (≈ 130 µM).

Regarding `CC(C)(O/N=C(\C(=O)N[C@@H]1C(=O)N2C(C(=O)[O-])=C(C[n+]3ccccc3)CS[C@H]12)c1csc(N)n1)C(=O)O` [ceftazidime], the MIC in data set [2] is ≤ 1 µg/mL; in data set [3], 128 µg/mL (≈ 234 µM).

With `O=C(N[C@H](CO)[C@H](O)c1ccc([N+](=O)[O-])cc1)C(Cl)Cl` [chloramphenicol], the MIC in data set [2] and in data set [3] was 4 µg/mL (≈ 12.4 µM) in each case.

Regarding `CN(C)[C@@H]1C(O)=C(C(N)=O)C(=O)[C@@]2(O)C(O)=C3C(=O)c4c(O)cccc4[C@@](C)(O)[C@H]3C[C@@H]12` [tetracycline], the MIC in data set [2] came to 1 µg/mL (≈ 2.25 µM); in data set [3], 8 µg/mL (≈ 18 µM).

As to `CN[C@@H]1[C@H](O[C@H]2[C@H](O[C@H]3[C@H](O)[C@@H](O)[C@H](N=C(N)N)[C@@H](O)[C@@H]3N=C(N)N)O[C@@H](C)[C@]2(O)C=O)O[C@@H](CO)[C@H](O)[C@H]1O` [streptomycin], the MIC is 8 µg/mL (≈ 13.8 µM) in data set [2] and 128 µg/mL (≈ 220 µM) in data set [3].

For the compound `CC(=O)c1c(C)[n+]([O-])c2ccccc2[n+]1[O-]` [mequindox], the MIC in data set [2] came to 8 µg/mL (≈ 36.7 µM); in data set [3], 64 µg/mL (≈ 293 µM).
